Laboratory results reported in ChEMBL document CHEMBL3046380, “In Vitro and In Vivo Characterization of Alpha-1A Selective Agonists and Their Utility for Stress Incontience” (Med Chem Res, 2004).
The source made the active and inactive calls. No cut-off for these calls is given here.

Legend:
[1] = target: T1, Alpha-1B adrenergic receptor (Mesocricetus auratus, UniProt P18841); assay: Binding affinity to Cricetinae (hamster) alpha1B adrenoreceptor by radioligand displacement assay
T1 sequence (P18841 whole entry): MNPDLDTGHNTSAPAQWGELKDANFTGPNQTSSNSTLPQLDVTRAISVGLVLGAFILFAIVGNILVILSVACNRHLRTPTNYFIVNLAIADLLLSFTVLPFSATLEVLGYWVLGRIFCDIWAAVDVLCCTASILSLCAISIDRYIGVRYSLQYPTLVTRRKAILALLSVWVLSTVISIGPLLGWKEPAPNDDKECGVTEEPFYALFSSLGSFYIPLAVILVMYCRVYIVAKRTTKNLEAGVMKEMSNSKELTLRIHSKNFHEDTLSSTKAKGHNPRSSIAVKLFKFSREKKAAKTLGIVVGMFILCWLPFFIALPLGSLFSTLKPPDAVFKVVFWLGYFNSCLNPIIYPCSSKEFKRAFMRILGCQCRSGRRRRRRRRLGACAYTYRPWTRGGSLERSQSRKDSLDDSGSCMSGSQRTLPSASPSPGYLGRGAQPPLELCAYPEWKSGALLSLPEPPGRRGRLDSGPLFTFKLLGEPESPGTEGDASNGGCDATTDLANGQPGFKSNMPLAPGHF

[2] = target: T2, Alpha-1B adrenergic receptor (Rattus norvegicus) (UniProt P15823); assay: (§1) Agonist activity at alpha1B adrenoreceptor in Rattus norvegicus (rat) spleen
T2 sequence (whole entry): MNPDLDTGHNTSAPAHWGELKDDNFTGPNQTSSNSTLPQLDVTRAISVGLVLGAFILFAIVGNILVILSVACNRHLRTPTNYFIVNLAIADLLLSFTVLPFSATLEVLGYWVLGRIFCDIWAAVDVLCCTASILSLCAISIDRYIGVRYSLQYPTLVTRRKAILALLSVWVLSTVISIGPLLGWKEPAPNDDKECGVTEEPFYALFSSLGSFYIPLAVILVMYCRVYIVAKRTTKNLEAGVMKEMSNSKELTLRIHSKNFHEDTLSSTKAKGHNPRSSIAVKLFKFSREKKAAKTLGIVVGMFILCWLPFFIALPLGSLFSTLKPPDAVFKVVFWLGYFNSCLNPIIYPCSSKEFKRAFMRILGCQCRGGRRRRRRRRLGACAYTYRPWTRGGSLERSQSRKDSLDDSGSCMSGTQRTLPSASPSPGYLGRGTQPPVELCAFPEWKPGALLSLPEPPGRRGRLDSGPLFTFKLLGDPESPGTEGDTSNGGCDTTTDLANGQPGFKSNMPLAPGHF

[3] = target: T3, Alpha-1A adrenergic receptor (Oryctolagus cuniculus, UniProt O02824); assay: (§2) Agonist activity at alpha1A adrenoreceptor in Oryctolagus cuniculus (rabbit) urethra
T3 sequence (O02824 whole entry): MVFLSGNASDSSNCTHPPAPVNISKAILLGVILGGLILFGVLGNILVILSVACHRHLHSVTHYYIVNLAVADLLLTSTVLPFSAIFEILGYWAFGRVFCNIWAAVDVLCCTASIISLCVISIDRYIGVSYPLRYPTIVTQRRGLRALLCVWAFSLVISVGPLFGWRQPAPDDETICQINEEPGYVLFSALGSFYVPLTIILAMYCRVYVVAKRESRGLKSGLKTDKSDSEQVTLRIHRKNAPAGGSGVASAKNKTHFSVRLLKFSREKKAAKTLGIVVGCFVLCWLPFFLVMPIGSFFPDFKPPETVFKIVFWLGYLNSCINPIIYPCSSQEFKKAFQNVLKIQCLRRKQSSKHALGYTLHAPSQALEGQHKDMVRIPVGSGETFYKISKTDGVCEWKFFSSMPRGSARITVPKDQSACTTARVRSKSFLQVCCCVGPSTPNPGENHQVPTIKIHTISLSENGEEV

[4] = target: T4, Alpha-1D adrenergic receptor (Rattus norvegicus, UniProt P23944); assay: Binding affinity to Rattus norvegicus (rat) alpha1D adrenoreceptor by radioligand displacement assay
T4 sequence (P23944 whole entry): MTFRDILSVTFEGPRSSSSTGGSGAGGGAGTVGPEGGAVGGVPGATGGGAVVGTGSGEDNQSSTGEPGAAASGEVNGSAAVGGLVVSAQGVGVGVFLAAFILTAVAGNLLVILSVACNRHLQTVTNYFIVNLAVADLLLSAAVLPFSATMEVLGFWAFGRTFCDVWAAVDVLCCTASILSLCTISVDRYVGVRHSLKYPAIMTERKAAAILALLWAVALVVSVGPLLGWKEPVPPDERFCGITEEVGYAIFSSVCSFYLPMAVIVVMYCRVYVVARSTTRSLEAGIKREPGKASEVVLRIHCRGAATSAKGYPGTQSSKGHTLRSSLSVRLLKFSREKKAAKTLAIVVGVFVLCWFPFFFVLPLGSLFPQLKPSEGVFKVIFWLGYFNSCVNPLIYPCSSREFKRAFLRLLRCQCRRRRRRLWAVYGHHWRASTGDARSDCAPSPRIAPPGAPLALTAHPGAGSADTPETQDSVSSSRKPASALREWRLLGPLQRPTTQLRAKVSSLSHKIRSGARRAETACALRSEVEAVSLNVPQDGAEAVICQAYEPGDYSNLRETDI

[5] = target: T5, Alpha-1A adrenergic receptor (Rattus norvegicus, UniProt P43140); assay: Binding affinity to alpha1A adrenoreceptor in Rattus norvegicus (rat) submaxillary gland by radioligand displacement assay
T5 sequence (P43140 whole entry): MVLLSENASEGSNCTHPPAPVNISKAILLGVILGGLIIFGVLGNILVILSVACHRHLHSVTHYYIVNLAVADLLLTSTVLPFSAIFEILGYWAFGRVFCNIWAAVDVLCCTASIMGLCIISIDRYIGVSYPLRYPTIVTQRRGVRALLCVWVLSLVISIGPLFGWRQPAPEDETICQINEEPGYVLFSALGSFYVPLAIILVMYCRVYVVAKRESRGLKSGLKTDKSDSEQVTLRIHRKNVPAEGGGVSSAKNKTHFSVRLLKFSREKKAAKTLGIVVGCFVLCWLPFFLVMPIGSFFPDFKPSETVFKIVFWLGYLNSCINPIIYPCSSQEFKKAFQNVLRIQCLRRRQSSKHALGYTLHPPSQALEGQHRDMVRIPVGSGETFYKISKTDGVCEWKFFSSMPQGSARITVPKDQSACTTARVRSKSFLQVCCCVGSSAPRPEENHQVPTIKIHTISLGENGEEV

[6] = target: T6, Alpha-1B adrenergic receptor (Rattus norvegicus, UniProt P15823); assay: as §1
T6 sequence (P15823 whole entry): T2 sequence (whole entry)

[7] = target: T2, Alpha-1B adrenergic receptor (Rattus norvegicus); assay: Agonist activity at alpha1B adrenoreceptor in Rattus norvegicus (rat) spleen relative to phenylephrine
[8] = target: T4, Alpha-1D adrenergic receptor; assay: Agonist activity at alpha1D adrenoreceptor in Rattus norvegicus (rat) aorta
Canis familiaris [9] = assay: Selectivity index, ratio of ED20 for change in mean arterial pressure to ED5 for effect on intraurethral pressure in iv dosed Canis lupus familiaris (dog); set-up: species or system Artery
[10] = target: T6, Alpha-1B adrenergic receptor; assay: Antagonist activity at alpha1B adrenoreceptor in Rattus norvegicus (rat) spleen assessed as inhibition of phenylephrine-indued contraction; conditions: read-out: pA2 (converted)
[11] = target: T4, Alpha-1D adrenergic receptor; assay: Antagonist activity at alpha1D adrenoreceptor in Rattus norvegicus (rat) aorta assessed as inhibition of phenylephrine-indued contraction; conditions: read-out: pA2 (converted)
[12] = target: T7, Alpha-1A adrenergic receptor (Oryctolagus cuniculus) (UniProt O02824); assay: as §2
T7 sequence (whole entry): T3 sequence (O02824 whole entry)

Canis familiaris [13] = assay: Pressor activity in Canis lupus familiaris (dog) assessed as increase in mean arterial blood pressure at 100 nmol/kg, iv; type: ADME, organism-based; conditions: in vivo
Canis familiaris [14] = assay: Pressor activity in Canis lupus familiaris (dog) assessed as increase in mean arterial blood pressure at 100 nmol/kg, iv in presence of prazosin; type: ADME, organism-based; conditions: in vivo
Canis familiaris [15] = assay: Pressor activity in Canis lupus familiaris (dog) assessed as increase in mean arterial blood pressure at 100 nmol/kg, iv in presence of idazoxan; type: ADME, organism-based; conditions: in vivo
[16] = target: T7, Alpha-1A adrenergic receptor (Oryctolagus cuniculus); assay: Agonist activity at alpha1A adrenoreceptor in Oryctolagus cuniculus (rabbit) urethra relative to phenylephrine
[17] = target: T8, Alpha-1D adrenergic receptor (Rattus norvegicus) (UniProt P23944); assay: Agonist activity at alpha1D adrenoreceptor in Rattus norvegicus (rat) aorta relative to phenylephrine
T8 sequence (whole entry): T4 sequence (P23944 whole entry)

Row | SMILES | Ki [1] [µM] | pEC50 [2] | Ki [4] [µM] | Ki [5] [nM] | also measured
1 | O=S(=O)(Nc1cccc2c1CCCC2c1c[nH]cn1)C1CC1 (stereo unspecified) | > 10 | inactive |  |  | EC50 [3]: 5.62 µM
2 | NC(=O)Nc1c(O)ccc2c1CCCC2C1=NCCN1 (stereo unspecified) | 10 |  | 5.5 | 7080 | 
3 | CC(C)S(=O)(=O)Nc1cccc2c1CCCC2c1c[nH]cn1 (stereo unspecified) | > 10 |  |  |  | EC50 [6]: 14.1 µM; Efficacy [7]: 8%; EC50 [3]: 6.76 µM
4 | COc1ccc2c(c1NS(C)(=O)=O)CCCC2C1=NCCN1 (stereo unspecified) | 3.47 |  | 1.55 | 617 | 
5 | COC(=O)Nc1c(O)ccc2c1CCCC2C1=NCCN1 (stereo unspecified) | 10 |  | 8.51 | 288 | 
6 | Cn1cnc(C2CCCc3c(NS(C)(=O)=O)cccc32)c1 (stereo unspecified) | 1.05 |  | 3.63 |  | 
7 | CCS(=O)(=O)Nc1c(O)ccc2c1CCCC2C1=NCCN1 (stereo unspecified) | 4.27 |  | 2.19 | 60.3 | 
8 | CC(N)C(O)c1ccccc1 (stereo unspecified) [PHENYLPROPANOLAMINE] |  |  |  |  | EC50 [8]: 75.9 µM; Selectivity Index (Canis familiaris [9]): 0.4; EC50 [6]: 282 µM; EC50 [3]: 234 µM
9 | O=S(=O)(Nc1c(O)ccc2c1CCCC2C1=NCCN1)c1ccccc1 (stereo unspecified) | > 3.16 |  | > 3.16 | > 3160 | 
10 | COc1ccc(OC)c(C(O)CN)c1 (stereo unspecified) [DESGLYMIDODRINE] |  |  |  |  | EC50 [8]: 1.86 µM; Selectivity Index (Canis familiaris [9]): 1.3; EC50 [3]: 7.08 µM
11 | CCS(=O)(=O)Nc1cccc(Cc2c[nH]cn2)c1C |  |  |  |  | Kb [10]: 15.1 µM; Kb [11]: 5.89 µM
12 | CN(c1c(O)ccc2c1CCCC2C1=NCCN1)S(C)(=O)=O (stereo unspecified) | 15.8 |  | 18.2 | 5500 | 
13 | CCCS(=O)(=O)Nc1c(O)ccc2c1CCCC2C1=NCCN1 (stereo unspecified) | 3.09 |  | 1.86 | 776 | 
14 | CS(=O)(=O)Nc1cccc2c1CCCCC2c1c[nH]cn1 (stereo unspecified) |  | inactive |  |  | 
15 | CCS(=O)(=O)Nc1cccc2c1CCCC2c1c[nH]c(C)n1 (stereo unspecified) | > 10 | inactive | > 10 |  | pEC50 [12]: inactive
16 | CCS(=O)(=O)Nc1cccc(Cc2c[nH]cn2)c1 |  |  |  |  | Activity (Canis familiaris [13]): Toxic; Activity (Canis familiaris [14]): Non-toxic; Activity (Canis familiaris [15]): Toxic; Kb [10]: 4.07 µM; Efficacy [7]: 11%; Kb [11]: 0.661 µM
17 | CCS(=O)(=O)Nc1cccc2c1CCCC2c1c[nH]cn1 (stereo unspecified) |  | inactive |  |  | 
18 | CS(=O)(=O)Nc1c(O)ccc2c1CCCC2C1=NCCN1 (stereo unspecified) |  |  |  |  | Efficacy [16]: 88%; Efficacy [17]: 99%
19 | O=S(=O)(Nc1c(O)ccc2c1CCCC2C1=NCCN1)C(F)(F)F (stereo unspecified) | > 3.16 |  | > 3.16 | > 3160 | 
20 | CCS(=O)(=O)Nc1cccc2c1CCC[C@H]2c1c[nH]cn1 | 1.32 |  | 1.07 | 46.8 | Selectivity Index (Canis familiaris [9]): 3.3; Efficacy [16]: 71%; Kb [10]: 13.8 µM; EC50 [6]: 3.8 µM; Efficacy [7]: 11%; EC50 [3]: 0.17 µM; Kb [11]: 7.24 µM
21 | CCCS(=O)(=O)Nc1cccc2c1CCCC2c1c[nH]cn1 (stereo unspecified) | > 10 | inactive | > 10 |  | pEC50 [12]: inactive
22 | Cn1cncc1C1CCCc2c(NS(C)(=O)=O)cccc21 (stereo unspecified) | > 10 | inactive | > 10 | > 10000 | pEC50 [12]: inactive
23 | Nc1cccc2c1CCCC2c1c[nH]cn1 (stereo unspecified) |  |  |  | 126 | EC50 [6]: 0.977 µM; EC50 [3]: 0.275 µM
24 | O=S(=O)(CC(F)(F)F)Nc1cccc2c1CCCC2c1c[nH]cn1 (stereo unspecified) | > 10 | inactive | > 10 |  | Efficacy [16]: 64%; Kb [10]: 42.7 µM; Kb [11]: 27.5 µM
25 | COC(=O)Nc1cccc2c1CCCC2c1c[nH]cn1 (stereo unspecified) |  | inactive |  |  | pEC50 [12]: inactive
